tested on: human breast cancer cell line MX-1; assay: Inhibition of cell proliferation (GI50, CellTiter-Glo) in MX-1 cells; format: cell-based; settings: MX1 cells, 48 h, dose for 50% inhibition of cell proliferation
Description: (§1) Human breast cancer cell lines T-47D, MX-1 and MDAMB435, human colon cancer cell line HT29, and human lung cancer cell line H1299 were grown and harvested as in Example 26. An aliquot of […] of cells (4.4×10^4 cells/mL) was added to a well of a 96-well microtiter plate containing 5 μL of a 10% DMSO in RPMI-1640 media solution containing 10 nM to 100 μM of N-(3,4-methylenedioxybenzyl)-6-phenylthieno[3,2-d]pyrimidin-4-amine (1 nM to 10 μM final). An aliquot of 45 μL of cells was added to a well of a 96-well microtiter plate containing 5 μL of a 10% DMSO in RPMI-1640 media solution without compound as the control sample for maximal cell proliferation (LMax). The samples were mixed by agitation and then incubated at 37° C. for 48 h in a 5% CO2-95% humidity incubator. After incubation, the samples were removed from the incubator and 25 μL of CellTiter-Glo™ reagent (Promega) was added. The samples were mixed by agitation and incubated at room temperature for 10-15 min. Plates were then read using a luminescent plate reader (Model SPECTRAfluor Plus, Tecan) to give Ltest values.
(§2) Baseline for GI50 (dose for 50% inhibition of cell proliferation) of initial cell numbers was determined by adding an aliquot of 45 μL of cells or 45 μL of media, respectively, to wells of a 96-well microtiter plate containing 5 μL of a 10% DMSO in RPMI-1640 media solution. The samples were mixed by agitation and then incubated at 37° C. for 0.5 h in a 5% CO2-95% humidity incubator. After incubation, the samples were removed from the incubator and 25 μL of CellTiter-Glo™ reagent (Promega) was added. The samples were mixed by agitation and incubated at 37° C. for 10-15 min at room temperature in a 5% CO2-95% humidity incubator. Fluorescence was read as above, (Lstart) defining luminescence for initial cell number used as baseline in GI50 determinations.
(§3) GI50 (dose for 50% inhibition of cell proliferation) is the concentration where [(LTest−Lstart)/(LMax−Lstart)]=0.5.

SMILES | GI50 [nM]
Ic1cc2ncnc(NCc3ccc4c(c3)OCO4)c2s1 [Example 3, N-(3,4-Methylenedioxybenzyl)-6-iodo-thieno[3,2-d]pyrimidin-4-amine] | 2500

tested on: human colon cancer cell line HT29; assay: Inhibition of cell proliferation (GI50, CellTiter-Glo) in HT29 cells; format: cell-based; settings: HT-29, 48 h, dose for 50% inhibition of cell proliferation
Description: as §1, §2, §3

SMILES | GI50 [nM]
Ic1cc2ncnc(NCc3ccc4c(c3)OCO4)c2s1 [Example 3, N-(3,4-Methylenedioxybenzyl)-6-iodo-thieno[3,2-d]pyrimidin-4-amine] | 2500

tested on: human lung cancer cell line H1299; assay: Inhibition of cell proliferation (GI50, CellTiter-Glo) in H1299 cells; format: cell-based; settings: NCI-H1299, 48 h, dose for 50% inhibition of cell proliferation
Description: as §1, §2, §3

SMILES | GI50 [nM]
Ic1cc2ncnc(NCc3ccc4c(c3)OCO4)c2s1 [Example 3, N-(3,4-Methylenedioxybenzyl)-6-iodo-thieno[3,2-d]pyrimidin-4-amine] | 1040

tested on: human breast cancer cell line MDAMB435; assay: Inhibition of cell proliferation (GI50, CellTiter-Glo) in MDAMB435 cells; format: cell-based; settings: MDA-MB-435, 48 h, dose for 50% inhibition of cell proliferation
Description: as §1, §2, §3

SMILES | GI50 [nM]
Ic1cc2ncnc(NCc3ccc4c(c3)OCO4)c2s1 [Example 3, N-(3,4-Methylenedioxybenzyl)-6-iodo-thieno[3,2-d]pyrimidin-4-amine] | 997

tested on: human breast cancer cell line T-47D; assay: Inhibition of cell proliferation (GI50, CellTiter-Glo) in T-47D cells; format: cell-based; settings: T47D cells, 48 h, dose for 50% inhibition of cell proliferation
Description: as §1, §2, §3

SMILES | GI50 [nM]
Ic1cc2ncnc(NCc3ccc4c(c3)OCO4)c2s1 [Example 3, N-(3,4-Methylenedioxybenzyl)-6-iodo-thieno[3,2-d]pyrimidin-4-amine] | 2070

tested on: human breast cancer cell line T-47D; assay: Caspase cascade activation assay in T-47D cells; format: cell-based; settings: T47D, 24 h or 48 h incubation, read-out: Caspase Activation Potency EC50 T-47D
Description: (§4) Human breast cancer cell lines T-47D and human lung cancer cell line H1299 were grown according to media component mixtures designated by American Type Culture Collection+10% FCS (Invitrogen Corporation), in a 5% CO2-95% humidity incubator at 37° C. T-47D and H1299 cells were maintained at a cell density between 50 and 80% confluency at a cell density of 0.1 to 0.6×10^6 cells/mL. Cells were harvested at 600×g and resuspended at 0.65×10^6 cells/mL into appropriate media+10% FCS. An aliquot of 22.5 μL of cells was added to a well of a 384-well microtiter plate containing 2.5 μL of a 10% DMSO in RPMI-1640 media solution containing 0.16 to 100 μM of N-(3,4-methylenedioxybenzyl)-6-phenylthieno[3,2-d]pyrimidin-4-amine or other test compound (0.016 to 10 μM final). An aliquot of 22.5 μL of cells was added to a well of a 384-well microtiter plate containing 2.5 μL of a 10% DMSO in RPMI-1640 media solution without test compound as the control sample. The samples were mixed by agitation and then incubated at 37° C. for 24 h or 48 h in a 5% CO2-95% humidity incubator. After incubation, the samples were removed from the incubator and 25 μL of a solution containing 14 μM of N-(Ac-DEVD)-N′-ethoxycarbonyl-R110 (SEQ ID No.:1) fluorogenic substrate (Cytovia, Inc.; WO99/18856), 20% sucrose (Sigma), 20 mM DTT (Sigma), 200 mM NaCl (Sigma), 40 mM Na PIPES buffer pH 7.2 (Sigma), and 500 μg/mL lysolecithin (Calbiochem) was added. The samples were mixed by agitation and incubated at room temperature. Using a fluorescent plate reader (Model SPECTRAfluor Plus, Tecan), an initial reading (T=0) was made approximately 1-2 min after addition of the substrate solution, employing excitation at 485 nm and emission at 530 nm, to determine the background fluorescence of the control sample. After the 3 h incubation, the samples were read for fluorescence as above (T=3 h).
(§5) The Relative Florescence Unit values (RFU) were used to calculate the sample readings as follows: RFU(T=3h)−Control RFU(T=0)=Net RFU(T=3h)
(§6) The activity of caspase cascade activation was determined by the ratio of the net RFU value for N-(3,4-methylenedioxybenzyl)-6-phenylthieno[3,2-d]pyrimidin-4-amine (Example A) or other test compound to that of control samples. The EC50 (nM) was determined by a sigmoidal dose-response calculation (Prism 3.0, GraphPad Software Inc.).

EC50 [µM] | SMILES
1.4 | COc1ccc(CNc2ncnc3cc(-c4ccccc4)sc23)cc1 [Example 10, N-(4-Methoxybenzyl)-6-phenylthieno[3,2-d]pyrimidin-4-amine]
> 10 | Brc1cc2ncnc(NCc3ccc4c(c3)OCO4)c2s1 [Example 11, N-(3,4-Methylenedioxybenzyl)-6-bromothieno[3,2-d]pyrimidin-4-amine]
2.8 | c1nc(NCc2ccc3c(c2)OCO3)c2sc(-c3ccoc3)cc2n1 [Example 12, N-(3,4-Methylenedioxybenzyl)-6-(furan-3-yl)thieno[3,2-d]pyrimidin-4-amine]
5.39 | c1ncc(-c2cc3ncnc(NCc4ccc5c(c4)OCO5)c3s2)cn1 [Example 13, N-(3,4-Methylenedioxybenzyl)-6-(pyrimidin-5-yl)thieno[3,2-d]pyrimidin-4-amine]

The next lines start with the compound.

SMILES | EC50 [µM]
c1nc(NCc2ccc3c(c2)OCO3)c2sccc2n1 [Example 1, N-(3,4-Methylenedioxybenzyl)-thieno[3,2-d]pyrimidin-4-amine] | > 10
c1cc(-c2cc3ncnc(NCc4ccc5c(c4)OCO5)c3s2)ccn1 [Example 2, N-(3,4-Methylenedioxybenzyl)-6-(pyridin-4-yl)thieno[3,2-d]pyrimidin-4-amine] | > 10
Ic1cc2ncnc(NCc3ccc4c(c3)OCO4)c2s1 [Example 3, N-(3,4-Methylenedioxybenzyl)-6-iodo-thieno[3,2-d]pyrimidin-4-amine] | 1.56
c1coc(-c2cc3ncnc(NCc4ccc5c(c4)OCO5)c3s2)c1 [Example 4, N-(3,4-Methylenedioxybenzyl)-6-(furan-2-yl)thieno[3,2-d]pyrimidin-4-amine] | 2.43
c1ccc(-c2cc3ncnc(NCc4ccc5c(c4)OCO5)c3s2)nc1 [Example 6, N-(3,4-Methylenedioxybenzyl)-6-(pyridin-2-yl)thieno[3,2-d]pyrimidin-4-amine] | 4.32
Cc1c(I)sc2c(NCc3ccc4c(c3)OCO4)ncnc12 [Example 7, N-(3,4-Methylenedioxybenzyl)-6-iodo-7-methylthieno[3,2-d]pyrimidin-4-amine] | > 10
Cc1c(-c2ccccc2)sc2c(NCc3ccc4c(c3)OCO4)ncnc12 [Example 8, N-(3,4-Methylenedioxybenzyl)-7-methyl-6-phenylthieno[3,2-d]pyrimidin-4-amine] | > 10
COc1ccc(CNc2ncnc3cc(I)sc23)cc1 [Example 9, N-(4-Methoxybenzyl)-6-iodothieno[3,2-d]pyrimidin-4-amine] | > 10

tested on: human lung cancer cell line H1299; assay: Caspase cascade activation assay in H1299 cells; format: cell-based; settings: NCI-H1299, 24 h or 48 h incubation, read-out: Caspase Activation Potency EC50 H1299
Description: as §4, §5, §6

EC50 [µM] | SMILES
2.68 | COc1ccc(CNc2ncnc3cc(-c4ccccc4)sc23)cc1 [Example 10, N-(4-Methoxybenzyl)-6-phenylthieno[3,2-d]pyrimidin-4-amine]
> 10 | Brc1cc2ncnc(NCc3ccc4c(c3)OCO4)c2s1 [Example 11, N-(3,4-Methylenedioxybenzyl)-6-bromothieno[3,2-d]pyrimidin-4-amine]
2.79 | c1nc(NCc2ccc3c(c2)OCO3)c2sc(-c3ccoc3)cc2n1 [Example 12, N-(3,4-Methylenedioxybenzyl)-6-(furan-3-yl)thieno[3,2-d]pyrimidin-4-amine]
5.43 | c1ncc(-c2cc3ncnc(NCc4ccc5c(c4)OCO5)c3s2)cn1 [Example 13, N-(3,4-Methylenedioxybenzyl)-6-(pyrimidin-5-yl)thieno[3,2-d]pyrimidin-4-amine]

Continued, compound first:

SMILES | EC50 [µM]
c1nc(NCc2ccc3c(c2)OCO3)c2sccc2n1 [Example 1, N-(3,4-Methylenedioxybenzyl)-thieno[3,2-d]pyrimidin-4-amine] | > 10
c1cc(-c2cc3ncnc(NCc4ccc5c(c4)OCO5)c3s2)ccn1 [Example 2, N-(3,4-Methylenedioxybenzyl)-6-(pyridin-4-yl)thieno[3,2-d]pyrimidin-4-amine] | > 10
Ic1cc2ncnc(NCc3ccc4c(c3)OCO4)c2s1 [Example 3, N-(3,4-Methylenedioxybenzyl)-6-iodo-thieno[3,2-d]pyrimidin-4-amine] | 5.09
c1coc(-c2cc3ncnc(NCc4ccc5c(c4)OCO5)c3s2)c1 [Example 4, N-(3,4-Methylenedioxybenzyl)-6-(furan-2-yl)thieno[3,2-d]pyrimidin-4-amine] | 2.39
c1ccc(-c2cc3ncnc(NCc4ccc5c(c4)OCO5)c3s2)nc1 [Example 6, N-(3,4-Methylenedioxybenzyl)-6-(pyridin-2-yl)thieno[3,2-d]pyrimidin-4-amine] | 5.1
Cc1c(I)sc2c(NCc3ccc4c(c3)OCO4)ncnc12 [Example 7, N-(3,4-Methylenedioxybenzyl)-6-iodo-7-methylthieno[3,2-d]pyrimidin-4-amine] | > 10
Cc1c(-c2ccccc2)sc2c(NCc3ccc4c(c3)OCO4)ncnc12 [Example 8, N-(3,4-Methylenedioxybenzyl)-7-methyl-6-phenylthieno[3,2-d]pyrimidin-4-amine] | > 10
COc1ccc(CNc2ncnc3cc(I)sc23)cc1 [Example 9, N-(4-Methoxybenzyl)-6-iodothieno[3,2-d]pyrimidin-4-amine] | > 10
